Activity calls are given as the source filed them. The calls are words filed in the database; no cut-off is given here.
Legend:
NCM460 = assay: Cytotoxicity against human NCM460 cells; type: toxicity, cell-based
LoVo = assay: Induction of DNA damage in human LoVo cells assessed as increase in gammaH2AX expression at 0.5 to 1 uM incubated for 72 hrs by DAPI staining based immunofluorescence analysis; type: functional, cell-based; settings: dose 0.5-1 µM
[1] = Toxicity in BALB/c nude mouse xenografted with human LoVo cells assessed as body weight loss at 12.5 mg/kg, ip administered once daily for 15 days in presence of cisplatin; type: organism-based; settings: in vivo, 360 h, time 15 day

Structure (SMILES): C[C@@H]1COCCN1c1cc(C2([S@@](C)(=O)=NC(=O)CCc3cn(CCCCCCCC(=O)Nc4cccc5c4C(=O)N(C4CCC(=O)NC4=O)C5=O)nn3)CC2)nc(-c2ccnc3[nH]ccc23)n1 (stereo partly drawn)
- Activity (NCM460): Non-Toxic
- Activity (LoVo): Active
- Activity [1]: Non-Toxic

From ChEMBL document CHEMBL5576037, “Discovery of the first ataxia telangiectasia and Rad3-related (ATR) degraders for cancer treatment” (Eur J Med Chem, 2024)
